ChEMBL document CHEMBL1641567, “Oxidative inactivation of the lymphoid tyrosine phosphatase mediated by both general and active site directed NO donors” (Bioorg Med Chem Lett, 2011)
pKi: −log10 of the molar value. Calls of active or inactive are those of the source. The rule behind the calls is not given here. Starred links: 1 amine or outer side, 2 acyl side, 3 side chain; linkers in the order of their positions; H or OH if unused. Non-standard residues stand in square brackets, D forms with d. Residues, ends and D or L forms follow the SMILES beside them. X1 = O=NSCC[C@H](N[*:1])C(=O)[*:2]

Key:
[1] = molecular target: T1, Tyrosine-protein phosphatase non-receptor type 22 (Homo sapiens) (UniProt Q9Y2R2); assay: Oxidative inactivation of lymphoid tyrosine phosphatase at 1 to 100 uM by DiFMUP assay; details: TDE = time-dependent effect
T1 sequence (whole entry): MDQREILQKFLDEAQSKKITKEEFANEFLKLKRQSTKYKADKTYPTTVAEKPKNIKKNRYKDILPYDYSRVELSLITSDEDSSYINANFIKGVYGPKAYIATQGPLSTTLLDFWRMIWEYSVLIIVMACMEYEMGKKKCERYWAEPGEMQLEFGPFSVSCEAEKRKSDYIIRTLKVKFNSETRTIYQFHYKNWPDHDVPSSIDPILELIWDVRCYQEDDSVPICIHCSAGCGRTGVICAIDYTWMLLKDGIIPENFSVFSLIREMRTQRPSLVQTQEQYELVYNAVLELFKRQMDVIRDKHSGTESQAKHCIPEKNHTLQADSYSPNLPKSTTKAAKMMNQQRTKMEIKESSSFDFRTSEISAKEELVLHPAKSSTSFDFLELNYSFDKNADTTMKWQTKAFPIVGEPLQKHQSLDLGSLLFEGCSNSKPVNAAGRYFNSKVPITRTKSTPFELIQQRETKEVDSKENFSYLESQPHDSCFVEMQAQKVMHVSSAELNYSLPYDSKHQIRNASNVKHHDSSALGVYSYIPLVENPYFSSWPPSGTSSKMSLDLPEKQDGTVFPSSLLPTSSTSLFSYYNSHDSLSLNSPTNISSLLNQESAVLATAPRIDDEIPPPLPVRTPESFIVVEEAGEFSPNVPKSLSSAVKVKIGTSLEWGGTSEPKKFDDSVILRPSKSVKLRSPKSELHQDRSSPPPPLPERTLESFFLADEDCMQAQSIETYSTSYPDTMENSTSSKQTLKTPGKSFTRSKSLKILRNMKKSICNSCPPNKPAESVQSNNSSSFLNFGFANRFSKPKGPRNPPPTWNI

[2] = molecular target: T1, Tyrosine-protein phosphatase non-receptor type 22 (Homo sapiens); assay: (§1) Oxidative inactivation of lymphoid tyrosine phosphatase by DiFMUP assay
[3] = molecular target: T2, Tyrosine-protein phosphatase non-receptor type 22 (Homo sapiens, UniProt Q9Y2R2); assay: as §1
T2 sequence (Q9Y2R2 whole entry): T1 sequence (whole entry)

[4] = molecular target: T1, Tyrosine-protein phosphatase non-receptor type 22 (Homo sapiens); assay: Oxidative inactivation of lymphoid tyrosine phosphatase by DiFMUP assay in presence of L-cysteine
[5] = molecular target: T1, Tyrosine-protein phosphatase non-receptor type 22 (Homo sapiens); assay: Oxidative competitive inactivation of lymphoid tyrosine phosphatase by Lineweaver-Burk plot
[6] = molecular target: T1, Tyrosine-protein phosphatase non-receptor type 22 (Homo sapiens); assay: Oxidative inactivation of lymphoid tyrosine phosphatase assessed as NO release by ESI-MS spectrum

SMILES: CC[C@H](C)[C@H](NC(=O)[C@H](CC(C)C)NC(=O)[C@H](CCCNC(=N)N)NC(=O)[C@H](C)NC(C)=O)C(=O)N[C@@H](CCC(=O)O)C(=O)N[C@@H](CC(=O)O)C(=O)N[C@@H](CC(N)=O)C(=O)N[C@@H](CCC(=O)O)C(=O)N[C@@H](CCSN=O)C(=O)N[C@H](C(=O)N[C@@H](C)C(=O)N[C@@H](CCCNC(=N)N)C(=O)N[C@@H](CCC(=O)O)C(=O)NCC(N)=O)[C@@H](C)O (Ac-ARLIEDNE[X1]TAREG-NH2)
- Activity [1]: tde
- Activity [2]: Dose-dependent effect
- Kinact [2]: 0.0472 min⁻¹
- pKi [3]: 5.15
- Activity [4]: inactive
- Activity [5]: Active
- Activity [6]: Active
